Results: the supplement of paper PMC6315032

How the values were obtained:
Experiment in all cases: apparent dissociation constant (pKDapp, Kinobeads competition, Cheng-Prusoff corrected) (-log10 M); higher = tighter binding
AKT1 = AKT1 (UniProt P31749); conditions: affinity matrix / lysate: Kinobeads, mixed HEK293/K-562/placenta lysate
BMX = BMX (UniProt P51813); conditions: affinity matrix / lysate: Kinobeads, mixed HEK293/K-562/placenta lysate
BRSK1 = BRSK1 (UniProt Q8TDC3); conditions: affinity matrix / lysate: Kinobeads, mixed HEK293/K-562/placenta lysate
BUB1 = BUB1 (UniProt O43683); conditions: affinity matrix / lysate: Kinobeads, mixed HEK293/K-562/placenta lysate
CHUK = CHUK (UniProt O15111); conditions: affinity matrix / lysate: Kinobeads, mixed HEK293/K-562/placenta lysate
CSNK2A1 = CSNK2A1 (UniProt P68400)
DSTYK = DSTYK (UniProt Q6XUX3); conditions: affinity matrix / lysate: Kinobeads, mixed HEK293/K-562/placenta lysate
EGFR = EGFR (UniProt P00533); conditions: affinity matrix / lysate: Kinobeads, mixed HEK293/K-562/placenta lysate
EPHB2 = EPHB2 (UniProt P29323); conditions: affinity matrix / lysate: Kinobeads, mixed HEK293/K-562/placenta lysate
EPHB4 = EPHB4 (UniProt P54760); conditions: affinity matrix / lysate: Kinobeads, mixed HEK293/K-562/placenta lysate
ERN1 = ERN1 (UniProt O75460); conditions: affinity matrix / lysate: Kinobeads, mixed HEK293/K-562/placenta lysate
KIAA1804 = KIAA1804 (UniProt Q5TCX8); conditions: affinity matrix / lysate: Kinobeads, mixed HEK293/K-562/placenta lysate
KSR1 = KSR1 (UniProt Q8IVT5); conditions: affinity matrix / lysate: Kinobeads, mixed HEK293/K-562/placenta lysate
LOC100128443 = conditions: affinity matrix / lysate: Kinobeads, mixed HEK293/K-562/placenta lysate
MAP3K1 = MAP3K1 (UniProt Q13233); conditions: affinity matrix / lysate: Kinobeads, mixed HEK293/K-562/placenta lysate
MAPK6 = MAPK6 (UniProt Q16659); conditions: affinity matrix / lysate: Kinobeads, mixed HEK293/K-562/placenta lysate
MAPK7 = MAPK7 (UniProt Q13164); conditions: affinity matrix / lysate: Kinobeads, mixed HEK293/K-562/placenta lysate
MAPKAPK3 = MAPKAPK3 (UniProt Q16644); conditions: affinity matrix / lysate: Kinobeads, mixed HEK293/K-562/placenta lysate
NTRK1 = NTRK1 (UniProt P04629); conditions: affinity matrix / lysate: Kinobeads, mixed HEK293/K-562/placenta lysate
PDPK1 = PDPK1 (UniProt O15530); conditions: affinity matrix / lysate: Kinobeads, mixed HEK293/K-562/placenta lysate
PFTK1 = PFTK1 (UniProt O94921); conditions: affinity matrix / lysate: Kinobeads, mixed HEK293/K-562/placenta lysate
PI4KA = PI4KA (UniProt P42356)
PI4KB = PI4KB (UniProt Q9UBF8); conditions: affinity matrix / lysate: Lipid Kinobeads, mixed HeLa/Jurkat/K-562 lysate
PIK3C3 = PIK3C3 (UniProt Q8NEB9); conditions: affinity matrix / lysate: Lipid Kinobeads, mixed HeLa/Jurkat/K-562 lysate
PIP4K2A = PIP4K2A (UniProt P48426); conditions: affinity matrix / lysate: Kinobeads, mixed HEK293/K-562/placenta lysate
PRKCD = PRKCD (UniProt Q05655); conditions: affinity matrix / lysate: Kinobeads, mixed HEK293/K-562/placenta lysate
PRKD3 = PRKD3 (UniProt O94806); conditions: affinity matrix / lysate: Kinobeads, mixed HEK293/K-562/placenta lysate
SNRK = SNRK (UniProt Q9NRH2); conditions: affinity matrix / lysate: Kinobeads, mixed HEK293/K-562/placenta lysate
STK10 = STK10 (UniProt O94804); conditions: affinity matrix / lysate: Kinobeads, mixed HEK293/K-562/placenta lysate
STK3 = STK3 (UniProt Q13188); conditions: affinity matrix / lysate: Kinobeads, mixed HEK293/K-562/placenta lysate
STK38 = STK38 (UniProt Q15208); conditions: affinity matrix / lysate: Kinobeads, mixed HEK293/K-562/placenta lysate
TAOK2 = TAOK2 (UniProt Q9UL54); conditions: affinity matrix / lysate: Kinobeads, mixed HEK293/K-562/placenta lysate
TBK1 = TBK1 (UniProt Q9UHD2); conditions: affinity matrix / lysate: Kinobeads, mixed HEK293/K-562/placenta lysate
[1] = affinity matrix / lysate: Kinobeads, mixed HEK293/K-562/placenta lysate
[2] = affinity matrix / lysate: Lipid Kinobeads, mixed HeLa/Jurkat/K-562 lysate

Measured: apparent dissociation constant (-log10 M)

Sequence of PI4KA (P42356 whole entry, looked up): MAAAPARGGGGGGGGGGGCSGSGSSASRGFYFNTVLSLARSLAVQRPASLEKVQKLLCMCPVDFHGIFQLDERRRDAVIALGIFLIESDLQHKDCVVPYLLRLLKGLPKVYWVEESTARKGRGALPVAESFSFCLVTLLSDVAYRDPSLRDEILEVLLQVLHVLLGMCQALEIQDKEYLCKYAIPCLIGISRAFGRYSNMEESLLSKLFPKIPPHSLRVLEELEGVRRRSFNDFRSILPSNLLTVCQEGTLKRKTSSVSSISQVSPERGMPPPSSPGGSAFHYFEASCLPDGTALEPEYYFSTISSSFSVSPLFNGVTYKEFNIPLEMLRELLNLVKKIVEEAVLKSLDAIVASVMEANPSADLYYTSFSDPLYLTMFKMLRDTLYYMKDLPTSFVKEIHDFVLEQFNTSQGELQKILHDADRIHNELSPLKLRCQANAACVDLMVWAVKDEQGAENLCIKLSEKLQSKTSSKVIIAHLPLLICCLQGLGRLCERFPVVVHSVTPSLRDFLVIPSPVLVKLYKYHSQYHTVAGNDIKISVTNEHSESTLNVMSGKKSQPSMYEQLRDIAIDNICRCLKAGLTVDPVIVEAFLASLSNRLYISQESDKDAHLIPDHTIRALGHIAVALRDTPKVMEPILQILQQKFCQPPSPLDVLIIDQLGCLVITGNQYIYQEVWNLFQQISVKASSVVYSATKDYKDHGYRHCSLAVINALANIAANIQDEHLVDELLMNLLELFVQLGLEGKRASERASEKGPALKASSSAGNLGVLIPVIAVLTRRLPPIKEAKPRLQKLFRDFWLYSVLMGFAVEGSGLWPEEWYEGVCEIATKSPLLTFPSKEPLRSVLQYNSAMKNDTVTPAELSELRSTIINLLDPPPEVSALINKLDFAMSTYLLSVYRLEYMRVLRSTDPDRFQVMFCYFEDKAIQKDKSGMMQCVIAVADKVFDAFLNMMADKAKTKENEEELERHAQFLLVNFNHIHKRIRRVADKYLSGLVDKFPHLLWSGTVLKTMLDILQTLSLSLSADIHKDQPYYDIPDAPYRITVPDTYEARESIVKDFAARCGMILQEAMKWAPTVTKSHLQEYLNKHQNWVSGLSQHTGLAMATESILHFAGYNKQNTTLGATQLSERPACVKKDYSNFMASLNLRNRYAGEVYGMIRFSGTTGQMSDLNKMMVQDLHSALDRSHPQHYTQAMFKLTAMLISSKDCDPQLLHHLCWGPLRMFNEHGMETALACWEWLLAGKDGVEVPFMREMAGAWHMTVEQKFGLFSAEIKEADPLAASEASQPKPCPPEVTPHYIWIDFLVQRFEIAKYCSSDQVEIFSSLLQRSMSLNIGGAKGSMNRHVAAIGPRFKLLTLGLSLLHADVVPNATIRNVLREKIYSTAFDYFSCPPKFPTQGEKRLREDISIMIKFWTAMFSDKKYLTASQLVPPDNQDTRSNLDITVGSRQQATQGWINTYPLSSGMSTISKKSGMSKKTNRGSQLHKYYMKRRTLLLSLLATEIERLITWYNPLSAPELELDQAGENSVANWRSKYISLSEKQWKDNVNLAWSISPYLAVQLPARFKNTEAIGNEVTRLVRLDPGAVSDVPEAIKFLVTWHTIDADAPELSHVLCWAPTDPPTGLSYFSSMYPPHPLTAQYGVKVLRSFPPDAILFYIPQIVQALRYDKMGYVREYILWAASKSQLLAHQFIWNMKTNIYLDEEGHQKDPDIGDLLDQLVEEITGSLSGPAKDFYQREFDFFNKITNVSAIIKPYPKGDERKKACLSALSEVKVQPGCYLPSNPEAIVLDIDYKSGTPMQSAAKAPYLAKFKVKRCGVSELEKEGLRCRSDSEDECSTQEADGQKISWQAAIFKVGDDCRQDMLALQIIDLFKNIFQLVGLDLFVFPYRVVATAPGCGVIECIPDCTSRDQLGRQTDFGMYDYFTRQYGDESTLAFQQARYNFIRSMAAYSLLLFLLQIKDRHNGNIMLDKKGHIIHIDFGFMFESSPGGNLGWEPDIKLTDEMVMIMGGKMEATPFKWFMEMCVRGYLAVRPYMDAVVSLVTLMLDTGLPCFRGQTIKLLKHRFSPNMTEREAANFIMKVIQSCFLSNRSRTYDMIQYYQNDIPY
Sequence of CSNK2A1 (P68400 whole entry, looked up): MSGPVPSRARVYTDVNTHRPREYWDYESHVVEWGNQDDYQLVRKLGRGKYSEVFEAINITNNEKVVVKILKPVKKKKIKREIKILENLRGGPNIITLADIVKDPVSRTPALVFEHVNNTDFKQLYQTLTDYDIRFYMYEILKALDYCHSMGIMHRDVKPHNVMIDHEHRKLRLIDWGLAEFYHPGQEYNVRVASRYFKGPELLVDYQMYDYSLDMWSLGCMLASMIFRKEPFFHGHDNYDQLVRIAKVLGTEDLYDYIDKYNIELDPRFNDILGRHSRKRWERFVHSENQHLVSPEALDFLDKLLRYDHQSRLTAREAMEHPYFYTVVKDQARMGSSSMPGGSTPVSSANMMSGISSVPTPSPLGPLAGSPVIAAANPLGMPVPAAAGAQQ
Sequence of BRSK1 (Q8TDC3 whole entry): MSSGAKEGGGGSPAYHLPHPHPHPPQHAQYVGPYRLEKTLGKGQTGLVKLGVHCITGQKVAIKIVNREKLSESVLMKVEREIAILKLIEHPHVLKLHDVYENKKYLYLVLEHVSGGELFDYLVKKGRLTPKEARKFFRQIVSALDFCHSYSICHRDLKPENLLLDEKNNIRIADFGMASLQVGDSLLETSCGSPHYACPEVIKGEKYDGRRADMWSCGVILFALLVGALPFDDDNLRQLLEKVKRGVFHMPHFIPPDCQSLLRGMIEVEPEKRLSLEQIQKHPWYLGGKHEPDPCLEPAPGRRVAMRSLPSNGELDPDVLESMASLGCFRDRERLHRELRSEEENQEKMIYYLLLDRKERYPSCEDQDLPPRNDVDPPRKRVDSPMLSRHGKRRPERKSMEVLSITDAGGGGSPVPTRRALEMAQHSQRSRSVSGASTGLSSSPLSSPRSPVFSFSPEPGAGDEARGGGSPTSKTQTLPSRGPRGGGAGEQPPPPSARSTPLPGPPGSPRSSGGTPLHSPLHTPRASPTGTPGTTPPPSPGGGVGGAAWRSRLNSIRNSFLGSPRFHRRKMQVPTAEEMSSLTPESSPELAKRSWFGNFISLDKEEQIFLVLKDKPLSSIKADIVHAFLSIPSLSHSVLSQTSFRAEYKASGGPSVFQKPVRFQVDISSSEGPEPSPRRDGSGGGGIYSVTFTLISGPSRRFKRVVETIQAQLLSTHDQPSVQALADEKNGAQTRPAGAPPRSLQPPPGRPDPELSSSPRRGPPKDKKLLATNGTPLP
Sequence of PRKD3 (O94806 whole entry): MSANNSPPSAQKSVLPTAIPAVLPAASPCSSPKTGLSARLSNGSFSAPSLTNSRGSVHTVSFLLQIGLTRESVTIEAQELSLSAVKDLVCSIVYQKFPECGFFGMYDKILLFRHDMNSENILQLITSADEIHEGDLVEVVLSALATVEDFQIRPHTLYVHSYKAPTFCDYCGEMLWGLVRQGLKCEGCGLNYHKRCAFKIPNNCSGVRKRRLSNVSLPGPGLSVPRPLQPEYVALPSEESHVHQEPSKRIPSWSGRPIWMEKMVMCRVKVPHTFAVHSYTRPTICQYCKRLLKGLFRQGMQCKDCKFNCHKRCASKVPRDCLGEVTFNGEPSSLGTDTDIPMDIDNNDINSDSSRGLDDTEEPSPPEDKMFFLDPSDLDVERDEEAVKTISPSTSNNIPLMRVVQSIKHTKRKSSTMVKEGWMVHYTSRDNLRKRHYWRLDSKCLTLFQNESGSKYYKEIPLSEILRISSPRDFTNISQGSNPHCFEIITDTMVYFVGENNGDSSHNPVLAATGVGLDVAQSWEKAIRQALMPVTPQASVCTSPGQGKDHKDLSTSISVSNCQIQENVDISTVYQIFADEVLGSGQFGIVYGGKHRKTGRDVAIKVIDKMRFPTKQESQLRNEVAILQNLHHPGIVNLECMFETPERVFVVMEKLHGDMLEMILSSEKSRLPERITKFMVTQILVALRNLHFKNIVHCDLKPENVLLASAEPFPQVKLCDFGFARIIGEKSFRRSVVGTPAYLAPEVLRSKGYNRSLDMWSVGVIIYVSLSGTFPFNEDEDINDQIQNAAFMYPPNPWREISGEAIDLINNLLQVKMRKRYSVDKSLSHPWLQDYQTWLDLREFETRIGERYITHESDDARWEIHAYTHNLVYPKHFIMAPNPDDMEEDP
Sequence of PI4KB (Q9UBF8 whole entry, looked up): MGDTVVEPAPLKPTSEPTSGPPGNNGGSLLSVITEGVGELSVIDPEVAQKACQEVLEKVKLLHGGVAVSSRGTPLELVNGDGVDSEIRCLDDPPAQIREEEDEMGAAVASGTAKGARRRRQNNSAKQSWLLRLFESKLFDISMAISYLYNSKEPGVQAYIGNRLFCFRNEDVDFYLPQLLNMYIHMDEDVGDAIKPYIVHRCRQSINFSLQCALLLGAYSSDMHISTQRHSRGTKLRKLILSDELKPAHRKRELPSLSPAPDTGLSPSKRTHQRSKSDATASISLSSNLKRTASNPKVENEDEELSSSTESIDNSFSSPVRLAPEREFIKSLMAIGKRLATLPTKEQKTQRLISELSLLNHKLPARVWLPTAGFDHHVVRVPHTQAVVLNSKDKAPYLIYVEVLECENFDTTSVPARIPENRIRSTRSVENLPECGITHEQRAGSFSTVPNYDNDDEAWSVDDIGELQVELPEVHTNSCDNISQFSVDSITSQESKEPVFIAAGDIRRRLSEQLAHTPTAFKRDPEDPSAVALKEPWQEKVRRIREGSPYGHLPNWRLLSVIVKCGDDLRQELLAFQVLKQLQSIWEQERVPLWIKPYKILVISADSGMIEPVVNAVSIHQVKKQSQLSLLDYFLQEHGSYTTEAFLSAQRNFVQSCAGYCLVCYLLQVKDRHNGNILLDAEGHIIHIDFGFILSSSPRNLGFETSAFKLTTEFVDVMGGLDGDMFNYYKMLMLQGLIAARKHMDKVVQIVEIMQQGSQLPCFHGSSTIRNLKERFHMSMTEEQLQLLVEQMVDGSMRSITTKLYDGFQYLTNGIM

COc1ccc(-c2ccc3c(N4CCOC[C@@H]4C)nc(N4CCOC[C@@H]4C)nc3n2)cc1CO [AZD8055]
< 6: AKT1 | BMX | BRSK1 | BUB1 | CHUK | CSNK2A1; [1] | CSNK2A1; [2] | DSTYK | EGFR | EPHB2 | EPHB4 | ERN1 | KIAA1804 | KSR1 | LOC100128443 | MAP3K1 | MAPK6 | MAPK7 | MAPKAPK3 | NTRK1 | PDPK1 | PFTK1 | PI4KA; [1] | PI4KA; [2] | PI4KB | PIK3C3 | PIP4K2A | PRKCD | PRKD3 | SNRK | STK10 | STK3 | STK38 | TAOK2 | TBK1

CCNC(=O)Nc1ccc(-c2nc(N3CCOC[C@@H]3C)c3c(n2)C(C)(C)S(=O)(=O)C3)cc1 [CZ415]
< 6: AKT1 | BMX | BRSK1 | BUB1 | CHUK | CSNK2A1; [1] | CSNK2A1; [2] | DSTYK | EGFR | EPHB2 | EPHB4 | ERN1 | KIAA1804 | KSR1 | LOC100128443 | MAP3K1 | MAPK6 | MAPK7 | MAPKAPK3 | NTRK1 | PDPK1 | PFTK1 | PI4KA; [2] | PI4KB | PIK3C3 | PIP4K2A | PRKCD | PRKD3 | SNRK | STK10 | STK3 | STK38 | TAOK2 | TBK1
